Test results published in patent US20250304550A1, “BROMODOMAIN AND EXTRA-TERMINAL (BET) SUBFAMILY BROMODOMAIN 1 (BD1) SELECTIVE INHIBITORS AND METHODS USING SAME” (Baylor College of Medicine, priority 2022, published 2025).

Experiments:
[1] = Metabolic stability assay in mouse liver microsomes; type: in vitro ADME
[2] = Metabolic stability assay in human liver microsomes; type: in vitro ADME
BRDT-BD1 = BRDT-BD1 (Homo sapiens (Human), UniProt Q58F21); assay: AlphaScreen bromodomain proximity assay (biotinylated JQ1 competition); type: binding; details: for IC50: AlphaScreen; for BRDT-BD1 vs. BRDT-BD2 fold: BD1 selectivity, AlphaScreen IC50 ratio; for fold loss of selectivity BRDT-BD1 over BRDT-BD2: compared to compound 2
BRD4-BD1 = BRD4-BD1 (Homo sapiens (Human), UniProt O60885); assay: as above; type: binding; details: for BRD4-BD1 vs. BRD4-BD2 fold: BD1 selectivity, AlphaScreen IC50 ratio
[3] = test system: BRD4-dependent AML cell lines; assay: Cell viability testing (CellTiterGlo, 72 hours) in AML cell lines; type: cell-based
BRD4-BD2 = BRD4-BD2 (Homo sapiens (Human), UniProt O60885); assay: AlphaScreen bromodomain proximity assay (biotinylated JQ1 competition); type: binding; details: in Table 4 '—' = not efficient
BRDT-BD2 = BRDT-BD2 (Homo sapiens (Human), UniProt Q58F21); assay: as above; type: binding; details: in Table 4 '—' = not efficient
NanoLuc-BET BD1 = assay: NanoBRET target engagement intracellular BET bromodomain assay in HEK293 cells; type: cell-based, human; details: transiently transfected HEK293 cells
BD2 = details: background statement; cited from earlier work
[4] = 0.5 mg protein/mL, compound 2.0 μM, NADPH 1.0 mM

Structure (SMILES) | IC50 (BRDT-BD1) [nM] | BRDT-BD1 vs. BRDT-BD2 fold (BRDT-BD1) | IC50 (BRD4-BD1; AlphaScreen) [nM] | BRD4-BD1 vs. BRD4-BD2 fold (BRD4-BD1) | IC50 (BRD4-BD2) [nM] | IC50 (BRDT-BD2) [nM] | other results
Cc1nnc2n1-c1ccc(Cl)cc1C(c1ccccc1)=NC2 [Alprazolam, reference compound] | – | – | – | – | – | – | MLM t1/2 [1, 4]: 5.03 h; HLM t1/2 [2, 4]: 14.4 h
CNC(=O)C(CC1CCN(C(=O)Cc2ccc3[nH]c(=O)cc(C)c3c2)CC1)NC(=O)c1ccc(-c2ccc(C)cc2C)cn1 (centres unmarked) [Compound 1, 5-(2,4-dimethylphenyl)-N-(3-(1-(2-(4-methyl-2-oxo-1,2-dihydroquinolin-6-yl)acetyl)piperidin-4-yl)-1-(methylamino)-1-oxopropan-2-yl)picolinamide] | 5.7 | 2246 fold | – | – | – | – | –
CNC(=O)[C@H](CC1CCN(C(=O)Cc2ccc3[nH]c(=O)cc(C)c3c2)CC1)NC(=O)c1ccc(-c2ccc(C)cc2C)cn1 [Compound 3, (S)-5-(2,4-dimethylphenyl)-N-(3-(1-(2-(4-methyl-2-oxo-1,2-dihydroquinolin-6-yl)acetyl)piperidin-4-yl)-1-(methylamino)-1-oxopropan-2-yl)picolinamide] | 96.6 | 65 fold | – | – | – | – | fold greater affinity for BRD4-BD1 than BRDT-BD1 (BRD4-BD1; AlphaScreen): 4 fold; cellular potency in AML cell lines (in words) [3]: minimal effect
CNC(=O)[C@H](CC1CCN(C(=O)Cc2ccc3[nH]c(=O)cc(C)c3c2)CC1)NC(=O)c1ccc(-c2ccccc2)cn1 [Compound 5, (S)-N-(3-(1-(2-(4-methyl-2-oxo-1,2-dihydroquinolin-6-yl)acetyl)piperidin-4-yl)-1-(methylamino)-1-oxopropan-2-yl)-5-phenylpicolinamide] | – | – | – | – | – | – | cellular potency in AML cell lines (in words) [3]: minimal activity
CNC(=O)[C@H](CC1CCN(C(=O)Cc2ccc3[nH]c(=O)cc(C)c3c2)CC1)NC(=O)c1ccc(C(F)(F)F)cn1 [Compound 7, (S)-N-(3-(1-(2-(4-methyl-2-oxo-1,2-dihydroquinolin-6-yl)acetyl)piperidin-4-yl)-1-(methylamino)-1-oxopropan-2-yl)-5-(trifluoromethyl)picolinamide] | 3.8 | – | 7.4 | – | – | – | –
CNC(=O)[C@@H](CC1CCN(C(=O)Cc2ccc3[nH]c(=O)cc(C)c3c2)CC1)NC(=O)c1ccc(-c2ccc(Cl)cc2)cn1 [Compound 8, (R)-5-(4-chlorophenyl)-N-(3-(1-(2-(4-methyl-2-oxo-1,2-dihydroquinolin-6-yl)acetyl)piperidin-4-yl)-1-(methylamino)-1-oxopropan-2-yl)picolinamide] | 5.1 | 6,633 fold | 12.8 | 1,553 fold | 19900 | 33800 | –
CNC(=O)[C@@H](CC1CCN(C(=O)Cc2ccc3[nH]c(=O)cc(C)c3c2)CC1)NC(=O)c1ccc(-c2ccc(Cl)c(F)c2)cn1 [Compound 9, (R)-5-(4-chloro-3-fluorophenyl)-N-(3-(1-(2-(4-methyl-2-oxo-1,2-dihydroquinolin-6-yl)acetyl)piperidin-4-yl)-1-(methylamino)-1-oxopropan-2-yl)picolinamide] | 4.7 | 4,799 fold | 9.8 | 1,423 fold | 14000 | 22600 | –
CNC(=O)C(CC1CCN(C(=O)Cc2ccc3[nH]c(=O)cc(C)c3c2)CC1)NC(=O)c1ccccn1 (centres unmarked) [Compound 11, N-(3-(1-(2-(4-methyl-2-oxo-1,2-dihydroquinolin-6-yl)acetyl)piperidin-4-yl)-1-(methylamino)-1-oxopropan-2-yl)picolinamide] | 20.2 | 960 fold | 15.7 | 2,078 fold | 32600 | 19400 | fold loss of selectivity BRDT-BD1 over BRDT-BD2 (BRDT-BD1): 5 fold
CNC(=O)C(CC1CCN(C(=O)Cc2ccc3[nH]c(=O)cc(C)c3c2)CC1)NC(=O)c1ccc(C(F)(F)F)cn1 (centres unmarked) [Compound 12, N-(3-(1-(2-(4-methyl-2-oxo-1,2-dihydroquinolin-6-yl)acetyl)piperidin-4-yl)-1-(methylamino)-1-oxopropan-2-yl)-5-(trifluoromethyl)picolinamide] | 14 | 513 fold | 6.9 | 1,275 fold | 8800 | 7190 | –
Cc1ccc(-c2ccc(C(=O)NC(C)CC3CCN(C(=O)Cc4ccc5[nH]c(=O)cc(C)c5c4)CC3)nc2)c(C)c1 (centres unmarked) [Compound 14, 5-(2,4-dimethylphenyl)-N-(1-(1-(2-(4-methyl-2-oxo-1,2-dihydroquinolin-6-yl)acetyl)piperidin-4-yl)propan-2-yl)picolinamide] | 31 | 756 fold | 52.4 | 381 fold | 20000 | 23400 | fold loss of selectivity BRDT-BD1 over BRDT-BD2 (BRDT-BD1): 6.5 fold
Cc1ccc(-c2ccc(C(=O)NCCC3CCN(C(=O)Cc4ccc5[nH]c(=O)cc(C)c5c4)CC3)nc2)c(C)c1 [Compound 15, 5-(2,4-dimethylphenyl)-N-(2-(1-(2-(4-methyl-2-oxo-1,2-dihydroquinolin-6-yl)acetyl)piperidin-4-yl)ethyl)picolinamide] | 33.7 | 2012 fold | 27.8 | 312 fold | 8690 | 67800 | –
Cc1cc(=O)[nH]c2ccc(CC(=O)N3CCC(CCNC(=O)c4ccccn4)CC3)cc12 [Compound 16, N-(2-(1-(2-(4-methyl-2-oxo-1,2-dihydroquinolin-6-yl)acetyl)piperidin-4-yl)ethyl)picolinamide] | 35.4 | 192 fold | 13.8 | 5,449 fold | 75200 | 6800 | –
Cc1cc(=O)[nH]c2ccc(CC(=O)N3CCC(CCNC(=O)c4ccccc4)CC3)cc12 [Compound 17, N-(2-(1-(2-(4-methyl-2-oxo-1,2-dihydroquinolin-6-yl)acetyl)piperidin-4-yl)ethyl)benzamide] | 148 | 70 fold | 47.9 | – | – | 10400 | –
Cc1cc(=O)[nH]c2ccc(CC(=O)N3CCC(CCNC(=O)c4ccc5ccccc5n4)CC3)cc12 [Compound 18, N-(2-(1-(2-(4-methyl-2-oxo-1,2-dihydroquinolin-6-yl)acetyl)piperidin-4-yl)ethyl)quinoline-2-carboxamide] | 81.3 | – | 122 | – | – | – | –
Cc1cc(=O)[nH]c2ccc(CC(=O)N3CCC(CCNC(=O)c4cc5ccccc5cn4)CC3)cc12 [Compound 19, N-(2-(1-(2-(4-methyl-2-oxo-1,2-dihydroquinolin-6-yl)acetyl)piperidin-4-yl)ethyl)isoquinoline-3-carboxamide] | 116 | – | 119 | – | – | – | –
Cc1cc(=O)[nH]c2ccc(CC(=O)N3CCC(CCNC(=O)c4nccc5ccccc45)CC3)cc12 [Compound 20, N-(2-(1-(2-(4-methyl-2-oxo-1,2-dihydroquinolin-6-yl)acetyl)piperidin-4-yl)ethyl)isoquinoline-1-carboxamide] | 638 | – | 341 | – | – | – | –
Cc1cc(=O)[nH]c2ccc(CC(=O)N3CCN(CCNC(=O)c4ccccn4)CC3)cc12 [Compound 21, N-(2-(4-(2-(4-methyl-2-oxo-1,2-dihydroquinolin-6-yl)acetyl)piperazin-1-yl)ethyl)picolinamide] | 5200 | 13.8 fold | 1300 | – | – | 71800 | –
Cc1sc2c(c1C)C(c1ccc(Cl)cc1)=N[C@@H](CC(=O)OC(C)(C)C)c1nnc(C)n1-2 [JQ1, tert-butyl (S)-2-(4-(4-chlorophenyl)-2,3,9-trimethyl-6H-thieno[3,2-f][1,2,4]triazolo[4,3-a][1,4]diazepin-6-yl)acetate, reference compound] | – | – | – | – | – | – | metabolic stability in mouse liver microsomes (in words) ([1]; mouse, microsomes): labile; inhibition of tracer binding, BD1 vs BD2 (in words) (NanoLuc-BET BD1): binds both BD1 and BD2 equally; half-life in human liver microsomes (in words) ([2]; human, microsomes): quite low
COc1cc(OC)c2c(=O)[nH]c(-c3cc(C)c(OCCO)c(C)c3)nc2c1 [RVX-208] | – | – | – | – | – | – | BD2 potency (BD2): > 100 nM; selectivity over BD1 domains (BD2): ~10 fold
